The record followed here is patent US10550102B2, “Indane and indoline derivatives and the use thereof as soluble guanylate cyclase activators” (NOVARTIS AG, priority 2014, dated 2020).

The structures appear in SMILES notation. pEC50: −log10 of the molar value.

Chain of soluble guanylate cyclase (human GUCYA3 and GUCYB3) overexpressed in CHO cells (Q02108 whole entry partner): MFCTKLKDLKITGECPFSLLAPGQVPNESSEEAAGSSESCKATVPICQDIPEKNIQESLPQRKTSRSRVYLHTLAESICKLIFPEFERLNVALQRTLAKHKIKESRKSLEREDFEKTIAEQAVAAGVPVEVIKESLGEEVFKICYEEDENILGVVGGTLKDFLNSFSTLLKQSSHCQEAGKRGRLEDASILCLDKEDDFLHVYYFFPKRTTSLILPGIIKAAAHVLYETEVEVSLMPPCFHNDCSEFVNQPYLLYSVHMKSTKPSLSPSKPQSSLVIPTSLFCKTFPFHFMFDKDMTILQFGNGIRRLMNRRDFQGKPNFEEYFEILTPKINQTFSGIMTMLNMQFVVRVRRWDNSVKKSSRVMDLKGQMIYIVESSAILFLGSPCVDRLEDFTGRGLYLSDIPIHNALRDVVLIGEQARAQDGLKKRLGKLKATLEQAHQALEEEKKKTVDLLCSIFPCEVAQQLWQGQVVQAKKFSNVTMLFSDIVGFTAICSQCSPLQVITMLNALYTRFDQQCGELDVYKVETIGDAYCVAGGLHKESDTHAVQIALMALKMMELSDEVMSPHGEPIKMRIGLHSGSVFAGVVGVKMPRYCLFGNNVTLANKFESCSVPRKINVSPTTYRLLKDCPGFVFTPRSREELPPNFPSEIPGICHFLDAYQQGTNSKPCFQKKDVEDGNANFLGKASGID
Chain of soluble guanylate cyclase (human GUCYA3 and GUCYB3) overexpressed in CHO cells (Q02153 whole entry): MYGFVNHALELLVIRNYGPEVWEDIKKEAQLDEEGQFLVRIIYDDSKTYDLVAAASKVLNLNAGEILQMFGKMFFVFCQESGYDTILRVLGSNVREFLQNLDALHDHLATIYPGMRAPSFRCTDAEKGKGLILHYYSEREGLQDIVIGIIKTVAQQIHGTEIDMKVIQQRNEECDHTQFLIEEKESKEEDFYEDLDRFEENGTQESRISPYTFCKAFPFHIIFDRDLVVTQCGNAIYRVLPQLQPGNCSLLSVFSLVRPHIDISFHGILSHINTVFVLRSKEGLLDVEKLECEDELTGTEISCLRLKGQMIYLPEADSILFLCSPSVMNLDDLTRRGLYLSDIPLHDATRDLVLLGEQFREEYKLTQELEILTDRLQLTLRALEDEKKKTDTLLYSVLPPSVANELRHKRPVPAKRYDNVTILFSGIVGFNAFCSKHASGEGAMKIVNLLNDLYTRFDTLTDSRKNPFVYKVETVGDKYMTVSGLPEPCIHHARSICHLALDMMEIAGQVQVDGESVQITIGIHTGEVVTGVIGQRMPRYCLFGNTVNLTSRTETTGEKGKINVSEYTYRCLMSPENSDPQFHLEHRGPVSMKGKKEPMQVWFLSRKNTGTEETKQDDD

This assay has as its target soluble guanylate cyclase (human GUCYA3 and GUCYB3) overexpressed in CHO cells (Homo sapiens (Human), UniProt Q02108+Q02153). Kind of assay: CHO cellular assay (cGMP production, Cisbio cGMP HTRF kit). The format is cell-based. The note with it: CHO GUCY clone 8E10, cGMP production, assay buffer with 1 mM IBMX and 20 uM ODQ, 1 h room temperature; minimum quantification limit 0.5 nM (listed 0.5 nM means ≤0.5 nM); read-out: EC50. From the text: Chinese hamster ovary (CHO) cells overexpressing soluble guanylate cyclase were generated to test the effect of sGC activators in a cellular context. Human cDNAs for GUCYA3 (RefSeq: NM_000856.3) and GUCYB3 (RefSeq: NM_000857.1) were amplified by PCR from a HUVEC (Human Umbilical Vein Endothelial Cells) cDNA library and cloned into mammalian expression vectors. CHO K1 cells (ATCC CCL-61) were transfected using Lipofectamine 2000 following manufacturer's instructions and stably expressing clones were identified by antibiotic selection. CHO GUCY clone 8E10 was used for subsequent experiments. Cells were seeded at a density of 3000 cells/well in white 384-well proxyplates (Perkin Elmer) and incubated overnight, then the medium was removed and cells were washed with assay buffer (HBSS, 0.1% BSA. 1 mM IBMX, 20 uM ODQ). sGC activators were serially diluted in DMSO, then diluted in assay buffer prior to adding to cells (10 ul/well, final DMSO concentration 0.5%). Cells were incubated with compounds for 1 h room temperature, then assayed for cGMP production using Cisbio cGMP HTRF kit (62GM2PEC) according to manufacturer's instructions. The EC50s are calculated based on the amount of cGMP interpolated from the standard curve, using a 4-parameter sigmoidal dose-response.
In general terms: TR-FRET usually uses a lanthanide donor and a delayed reading to cut background.
Consider `CCc1cc(NC2CCc3cccc(-c4cccc(-n5ncc(C(=O)O)c5CC)n4)c32)ccc1C1CCN(C(=O)C2CC2)CC1` (single isomer, unassigned; (+)) [(+)-53-1, (+)-1-(6-(3-((4-(1-(cyclopropanecarbonyl)piperidin-4-yl)-3-ethylphenyl)amino)-2,3-dihydro-1H-inden-4-yl)pyridin-2-yl)-5-ethyl-1H-pyrazole-4-carboxylic acid], for which the negative-log EC50 (pEC50) was no less than 9.30. As to `CCc1cc(NC2CCc3cccc(-c4cccc(-n5ncc(C(=O)O)c5CC)n4)c32)ccc1C1CCN(C(=O)CC2CC2)CC1` (single isomer, unassigned; (+)) [(+)-53-2, (+)-1-(6-(3-((4-(1-(2-cyclopropylacetyl)piperidin-4-yl)-3-ethylphenyl)amino)-2,3-dihydro-1H-inden-4-yl)pyridin-2-yl)-5-ethyl-1H-pyrazole-4-carboxylic acid], the pEC50 is 9.00. For `Cc1cc(C2CCN(C(=O)CC3CC3)CC2)cc(F)c1NC1CCc2cccc(-c3cccc(-n4ncc(C(=O)O)c4C)n3)c21` (single isomer, unassigned; (+)) [(+)-53-3, (+)-1-(6-(3-((4-(1-(2-cyclopropyacetyl)piperidin-4-yl)-2-fluoro-6-methylphenyl)amino)-2,3-dihydro-1H-inden-4-yl)pyridin-2-yl)-5-methyl-1H-pyrazole-4-carboxylic acid], the negative logarithm of the EC50 (pEC50) was 8.46. Take `Cc1cc(C2CCN(C(=O)C3CC3)CC2)ccc1NC1CCc2cccc(-c3cccc(-n4ncc(C(=O)O)c4C(F)F)n3)c21` (single isomer, unassigned; (+)) [(+)-53-4, (+)-1-(6-(3-((4-(1-(cyclopropanecarbonyl)piperidin-4-yl)-2-methylphenyl)amino)-2,3-dihydro-1H-inden-4-yl)pyridin-2-yl)-5-(difluoromethyl)-1H-pyrazole-4-carboxylic acid]: the negative-log EC50 (pEC50) is no less than 9.30. As for `Cc1cc(C2CCN(C(=O)C3CC3)CC2)ccc1OC1CCc2cccc(-c3cccc(-n4ncc(C(=O)O)c4C(F)(F)F)n3)c21` (single isomer, unassigned; (+)) [Example 3a, (+)-1-(6-(3-(4-(1-(cyclopropanecarbonyl)piperidin-4-yl)-2-methylphenoxy)-2,3-dihydro-1H-inden-4-yl)pyridin-2-yl)-5-(trifluoromethyl)-1H-pyrazole-4-carboxylic Acid], the pEC50 is 9.00. With `O=C(O)c1cnn(-c2cccc(-c3cccc4c3C(Oc3ccc5c(c3)CCN(Cc3ccccn3)C5)CC4)n2)c1C(F)(F)F` (single isomer, unassigned; (+)) [Example 4a, (+)-1-(6-(3-((2-(pyridin-2-ylmethyl)-1,2,3,4-tetrahydroisoquinolin-6-yl)oxy)-2,3-dihydro-1H-inden-4-yl)pyridin-2-yl)-5-(trifluoromethyl)-1H-pyrazole-4-carboxylic Acid], the negative logarithm of the EC50 (pEC50) is 8.62.

As to `Cc1cc(C2CCN(C(=O)C3CC3)CC2)ccc1NC1CCc2cccc(-c3cccc(-n4ncc(C(=O)O)c4C(F)(F)F)c3)c21` (single isomer, unassigned; (+)) [Example 6. b). (+), (+)-1-(3-(3-((4-(1-(cyclopropanecarbonyl)piperidin-4-yl)-2-methylphenyl)amino)-2,3-dihydro-1H-inden-4-yl)phenyl)-5-(trifluoromethyl)-1H-pyrazole-4-carboxylic acid], the pEC50 was no less than 9.30. As to `Cc1cc(C2CCN(C(=O)C3CC3)CC2)ccc1NC1CCc2cccc(-c3cccc(-n4ncc(C(=O)O)c4C)n3)c21` (single isomer, unassigned; (+)) [Example 7a, (+)-1-(6-(3-((4-(1-(cyclopropanecarbonyl)piperidin-4-yl)-2-methylphenyl)amino)-2,3-dihydro-1H-inden-4-yl)pyridin-2-yl)-5-methyl-1H-pyrazole-4-carboxylic acid], the negative-log EC50 (pEC50) is no less than 9.30.

For the compound `Cc1c(C(=O)O)cnn1-c1cccc(-c2cccc3c2C(Nc2ccc(C4CCN(C(=O)C5CC5)CC4)cc2)CC3)n1` (single isomer, unassigned; (+)) [Example 9. b). (+), (+)-1-(6-(3-((4-(1-(cyclopropanecarbonyl)piperidin-4-yl)phenyl)amino)-2,3-dihydro-1H-inden-4-yl)pyridin-2-yl)-5-methyl-1H-pyrazole-4-carboxylic acid], the pEC50 was no less than 9.30. Regarding `CCc1c(C(=O)O)cnn1-c1cccc(-c2cccc3c2C(Nc2ccc(C4CCN(C(=O)C5CC5)CC4)cc2C)CC3)n1` (single isomer, unassigned; (+)) [Example 10a], the pEC50 is no less than 9.30.

Regarding `CCc1cc(CN2CC(C)c3cccc(-c4cccc(-n5ncc(C(=O)O)c5C(F)(F)F)n4)c32)ccc1C1CCN(C(=O)C2CC2)CC1` (single isomer, unassigned; (+)) [Example 19a], the pEC50 was no less than 9.30.

In the case of `CCc1cc(CN2c3c(cccc3-c3cccc(-n4ncc(C(=O)O)c4CC)n3)CC2C)ccc1C1CCN(C(=O)C2CC2)CC1` (single isomer, unassigned; (+)) [Example 22a, (+)-1-(6-(1-(4-(1-(Cyclopropanecarbonyl)piperidin-4-yl)-3-ethylbenzyl)-2-methylindolin-7-yl)pyridin-2-yl)-6-ethyl-1H-pyrazole-4-carboxylic Acid], the pEC50 was 9.00. For `Cc1cc(C2CCN(C(=O)C3CC3)CC2)ccc1NC1COc2cccc(-c3cccc(-n4ncc(C(=O)O)c4C)n3)c21` (single isomer, unassigned; (+)) [Example 34a, (+)-1-(6-(3-((4-(1-(Cyclopropanecarbonyl)piperidin-4-yl)-2-methylphenyl)amino)-2,3-dihydrobenzofuran-4-yl)pyridin-2-yl)-5-methyl-1H-pyrazole-4-carboxylic Acid], the pEC50 was no less than 9.30.

In the case of `Cc1cc(C2CCN(C(=O)[C@H](C)O)CC2)ccc1NC1COc2cccc(-c3cccc(-n4ncc(C(=O)O)c4C)n3)c21` (single isomer, unassigned; (+)) [Example 35a], the negative-log EC50 (pEC50) is no less than 9.30. Turning to `Cc1cc(C2CCN(C(=O)C3CC3)CC2)ccc1CC1CCc2cccc(-c3cccc(-n4ncc(C(=O)O)c4C)n3)c21` (single isomer, unassigned; (+)) [Example 37. b). (+), (+)-1-(6-(3-(4-(1-(Cyclopropanecarbonyl)piperidin-4-yl)-2-methylbenzyl)-2,3-dihydro-1H-inden-4-yl)pyridin-2-yl)-5-methyl-1H-pyrazole-4-carboxylic acid], the negative logarithm of the EC50 (pEC50) is no less than 9.30. Turning to `CCc1cc(CC2CCc3cccc(-c4cccc(-n5ncc(C(=O)O)c5CC)n4)c32)ccc1C1CCN(C(=O)[C@H](C)O)CC1` (single isomer, unassigned; (+)) [Example 39. b). (+)], the negative logarithm of the EC50 (pEC50) is no less than 9.30. Consider `CCc1cc(CC2CCc3cccc(-c4cccc(-n5ncc(C(=O)O)c5CC)n4)c32)ccc1C1CCN(C(=O)OC)CC1` (single isomer, unassigned; (+)) [Example 41. b). (+), (+)-5-ethyl-1-(6-(3-(3-ethyl-4-(1-(methoxycarbonyl)piperidin-4-yl)benzyl)-2,3-dihydro-1H-inden-4-yl)pyridin-2-yl)-1H-pyrazole-4-carboxylic acid], for which the negative logarithm of the EC50 (pEC50) is no less than 9.30. In the case of `CCc1c(C(=O)O)cnn1-c1cccc(-c2cccc3c2C(Cc2ccc(C4CCN(C(=O)OC)CC4)cc2C)CC3)n1` (single isomer, unassigned; (+)) [Example 42. b). (+), (+)-5-ethyl-1-(6-(3-(4-(1-(methoxycarbonyl)piperidin-4-yl)-2-methylbenzyl)-2,3-dihydro-1H-inden-4-yl)pyridin-2-yl)-1H-pyrazole-4-carboxylic acid], the negative-log EC50 (pEC50) is no less than 9.30.

As for `Cc1cc(C2CCN(C(=O)C3CCC3)CC2)ccc1NC1CCc2cccc(-c3cccc(-n4ncc(C(=O)O)c4C)n3)c21` (single isomer, unassigned; (+)) [Example 45a], the pEC50 is no less than 9.30.

Consider `Cc1cc(C2CCN(C(=O)[C@H](C)O)CC2)ccc1NC1CCc2cccc(-c3cccc(-n4ncc(C(=O)O)c4C)n3)c21` (single isomer, unassigned; (+)) [Example 47a], for which the pEC50 is no less than 9.30.

As to `CCc1cc(NC2CCc3cccc(-c4cccc(-n5ncc(C(=O)O)c5CC)n4)c32)ccc1C1CCN(C(=O)[C@H](C)O)CC1` (single isomer, unassigned; (+)) [Example 48a], the pEC50 was no less than 9.30. As for `CCC[C@H](O)C(=O)N1CCC(c2ccc(NC3CCc4cccc(-c5cccc(-n6ncc(C(=O)O)c6CC)n5)c43)cc2CC)CC1` (single isomer, unassigned; (+)) [Example 49a], the figure is no less than 9.30; as for `CCc1cc(NC2CCc3cccc(-c4cccc(-n5ncc(C(=O)O)c5CC)n4)c32)ccc1C1CCN(C(=O)[C@@H](O)CC)CC1` (single isomer, unassigned; (+)) [Example 50a], no less than 9.30; as for `CCc1cc(NC2CCc3cccc(-c4cccc(-n5ncc(C(=O)O)c5CC)n4)c32)ccc1C1CCN(C(=O)OC(C)C)CC1` (single isomer, unassigned; (+)) [Example 51a], no less than 9.30.

Usually pEC50 stands for the EC50 on a negative log10 scale, so that one unit is a factor of ten.
